Experiments:
Type in all cases: in vivo
Wild Oats = experiment: Pre-emergent control of seed germination, soil drench; conditions: Wild Oats, about 2 weeks
Procedure, shortened: (§1)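 Compound formulated with Span 85/Tween 80 in acetone, dispersed in water, and applied as a soil drench to seeded beds at 1.0, 2.0 and 5.0 lb/acre (about 1.6, 3.2, 8.0 ppm soil); lower concentrations also tested. Germination control scored versus untreated checks after about 2 weeks.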

Pigweeds = experiment: as above; conditions: Pig Weeds, about 2 weeks
Procedure, shortened: as §1

Barnyard Grass = experiment: as above; conditions: Barnyard Grass, about 2 weeks
Procedure, shortened: as §1

Yellow Foxtail = experiment: as above; conditions: Yellow Foxtail, about 2 weeks
Procedure, shortened: as §1

Cultured Rice [1] = experiment: as above; conditions: about 2 weeks
From the text: (§2) Four parts by weight of the compound, 0.08 part of sorbitan trioleate (Span 85), and 0.02 part of a sorbitan monooleate polyoxyethylene derivative (Tween 80) are dipersed in 40 milliliters of acetone to produce a concentrate composition in the form of a water-dispersible liquid containing the predetermined oxirane compound as the sole active agent.
(§3) A portion of each of these concentrate compositions were separately dispersed in portions of water to provide aqueous compositions, containing 0.44 pound of the oxirane compound per 100 gallons of ultimate aqueous mixture.
(§4) The aqueous compositions were then employed for the treatment of seed beds of good agricultural soil which had been prepared and seeded with the seeds of various grass species and broadleaf plants. The grass species included white winter wheat, cultured rice, pigweeds, crabgrass, cheat grass, wild oats, Johnson grass, barnyard grass and yellow foxtail; and the broadleaf plants included corn. In the treating operations, a predetermined quantity of each of the compositions was applied to separate seedbeds as a soil drench at a rate of about 0.43 acre inch of aqueous composition per acre. The quantities were controlled to supply a substantial uniform dosage in a seedbed equivalent to 1.0, 2.0 and 5.0 pounds of the oxirane compound per acre. These dosages correspond, respectively, to a concentration, within the soil depth penetrated of about 1.6, 3.2 and 8.0 parts by weight of the oxirane compound per million parts by weight of soil. Other seedbeds were similarly seeded with the named plant species but were left untreated to serve as checks.
(§5) After about 2 weeks the seedbeds were examined to ascertain what control of the growth of seeds had been obtained.
(§6) An aqueous composition containing 2-(α,α,α -trifluoro-m-tolyl)-2-(2,2,2-trichloroethyl)oxirane was prepared as described in Example 32. The composition was then employed according to the procedures of Example 32 except that lower concentrations of the oxirane compound were employed in the composition.
(§7) The percent control of the various plant species at the employed dosage rate of the 2-(α,α,α-trifluoro-m-tolyl)- 2-(2,2,2-trichloroethyl) supplied by the composition is set forth in the following Table IV.

White Winter Wheat [2] = experiment: as above; conditions: about 2 weeks
From the text: as §2, §3, §4, §5, §6, §7

Crabgrass [3] = experiment: Post-emergent control, foliage spray; conditions: about two weeks
Method: (§8) An aqueous composition containing 2-(m-bromophenyl)- 2-(2,2,2-trichloroethyl)oxirane was prepared as described in Example 32. Separate portions of this composition were thereafter dispersed in a further quantity of water to prepare aqueous spray compositions containing 250, 500, 1000, 2000 and 4000 parts, respectively of the compound per million parts by weight of ultimate treating composition. These compositions were applied as foliage sprays to various grass and broadleaf plant species, the plants being of two to four inches in height and growing in seed beds. The treatments were carried out with conventional spray equipment, the plants being sprayed to the point of run-off. Similar beds of the plant species were left untreated to serve as checks. After about two weeks, the beds were examined to ascertain what control of the growth of plants had been obtained. The plant species employed, together with the percent control obtained at the employed dosage rate of the composition is set forth in the following Table V.

Soybean = experiment: Post-emergent control, foliage spray; conditions: about two weeks
Method: as §8

Cultured Rice [4] = experiment: Post-emergent control, foliage spray; conditions: about two weeks
Method: as §8

Johnson Grass [5] = experiment: Post-emergent control, foliage spray; conditions: about two weeks
Method: as §8

White Winter Wheat [6] = experiment: Post-emergent control, foliage spray; conditions: about two weeks
Method: as §8

Water-Grass = experiment: Comparative pre-emergence herbicide test
From the text: as §2, §3, §4, §5
Separate aqueous compositions containing the 2-(m-chlorophenyl)-2-(2,2,2-trichloroethyl)oxirane (Cmpd. A) and 2-(m-bromophenyl)-2-(2,2,2-trichloroethyl)oxirane (Cmpd. C) compounds of the present invention were prepared as in Example 32 for comparative per-emergence herbicide tests against noxious grass species with the known 2 -(p-chlorophenyl)-2-(2,2,2-trichloroethyl)oxirane (Cmpd. B) compound and 2-(p-bromophenyl)-2-(2,2,2-trichloroethyl)oxirane (Cmpd. D). The pre-emergence tests were conducted in Example 32 and the results of such tests are set forth below in Table III.

Corn = experiment: Pre-emergent control of seed germination, soil drench; conditions: about 2 weeks
From the text: as §2, §3, §4
After about 2 weeks the seedbeds were examined to ascertain what control of the growth of seeds had been obtained. […]
as §6, §7

Crabgrass [7] = experiment: as above; conditions: for Percent Pre-Emergent Control of Seed Germination: Crabgrass, about 2 weeks; for % Control: pre-emergence, Crab Grass
Johnson Grass [8] = experiment: as above; conditions: Johnson Grass; for Percent Pre-Emergent Control of Seed Germination: about 2 weeks; for % Control: pre-emergence

## ClC(Cl)(Cl)CC1(c2cccc(Br)c2)CO1 (stereo not drawn) [Example 3, 2-(m-bromophenyl)-2-(2,2,2-trichloroethyl)oxirane]
Wild Oats; 1.0 pounds per surface acre
  Percent Pre-Emergent Control of Seed Germination: 100%
Wild Oats; 2.0 pounds per surface acre
  Percent Pre-Emergent Control of Seed Germination: 100%
Wild Oats; 5.0 pounds per surface acre
  Percent Pre-Emergent Control of Seed Germination: 100%
Pigweeds; 1.0 pounds per surface acre
  Percent Pre-Emergent Control of Seed Germination: 95%
Pigweeds; 2.0 pounds per surface acre
  Percent Pre-Emergent Control of Seed Germination: 100%
Pigweeds; 5.0 pounds per surface acre
  Percent Pre-Emergent Control of Seed Germination: 100%
Barnyard Grass; 1.0 pounds per surface acre
  Percent Pre-Emergent Control of Seed Germination: 95%
Barnyard Grass; 2.0 pounds per surface acre
  Percent Pre-Emergent Control of Seed Germination: 95%
Barnyard Grass; 5.0 pounds per surface acre
  Percent Pre-Emergent Control of Seed Germination: 95%
Yellow Foxtail; 1.0 pounds per surface acre
  Percent Pre-Emergent Control of Seed Germination: 100%
Yellow Foxtail; 2.0 pounds per surface acre
  Percent Pre-Emergent Control of Seed Germination: 100%
Yellow Foxtail; 5.0 pounds per surface acre
  Percent Pre-Emergent Control of Seed Germination: 95%
Cultured Rice [1]; 2.0 pounds per surface acre
  Percent Pre-Emergent Control of Seed Germination: 100%
Cultured Rice [1]; 5.0 pounds per surface acre
  Percent Pre-Emergent Control of Seed Germination: 100%
White Winter Wheat [2]; 1.0 pounds per surface acre
  Percent Pre-Emergent Control of Seed Germination: 100%
White Winter Wheat [2]; 2.0 pounds per surface acre
  Percent Pre-Emergent Control of Seed Germination: 100%
White Winter Wheat [2]; 5.0 pounds per surface acre
  Percent Pre-Emergent Control of Seed Germination: 100%
Crabgrass [3]; 250 parts per million
  Percent Post-Emergent Control of Seed Germination: 30%
Crabgrass [3]; 500 parts per million
  Percent Post-Emergent Control of Seed Germination: 65%
Crabgrass [3]; 1000 parts per million
  Percent Post-Emergent Control of Seed Germination: 95%
Crabgrass [3]; 2000 parts per million
  Percent Post-Emergent Control of Seed Germination: 95%
Crabgrass [3]; 4000 parts per million
  Percent Post-Emergent Control of Seed Germination: 95%
Soybean; 250 parts per million
  Percent Post-Emergent Control of Seed Germination: 30%
Soybean; 500 parts per million
  Percent Post-Emergent Control of Seed Germination: 30%
Soybean; 1000 parts per million
  Percent Post-Emergent Control of Seed Germination: 50%
Soybean; 2000 parts per million
  Percent Post-Emergent Control of Seed Germination: 75%
Soybean; 4000 parts per million
  Percent Post-Emergent Control of Seed Germination: 85%
Cultured Rice [4]; 250 parts per million
  Percent Post-Emergent Control of Seed Germination: 0%
Cultured Rice [4]; 500 parts per million
  Percent Post-Emergent Control of Seed Germination: 0%
Cultured Rice [4]; 1000 parts per million
  Percent Post-Emergent Control of Seed Germination: 0%
Cultured Rice [4]; 2000 parts per million
  Percent Post-Emergent Control of Seed Germination: 40%
Cultured Rice [4]; 4000 parts per million
  Percent Post-Emergent Control of Seed Germination: 50%
Johnson Grass [5]; 250 parts per million
  Percent Post-Emergent Control of Seed Germination: 95%
Johnson Grass [5]; 500 parts per million
  Percent Post-Emergent Control of Seed Germination: 95%
Johnson Grass [5]; 1000 parts per million
  Percent Post-Emergent Control of Seed Germination: 95%
Johnson Grass [5]; 2000 parts per million
  Percent Post-Emergent Control of Seed Germination: 95%
Johnson Grass [5]; 4000 parts per million
  Percent Post-Emergent Control of Seed Germination: 95%
White Winter Wheat [6]; 250 parts per million
  Percent Post-Emergent Control of Seed Germination: 0%
White Winter Wheat [6]; 500 parts per million
  Percent Post-Emergent Control of Seed Germination: 0%
White Winter Wheat [6]; 1000 parts per million
  Percent Post-Emergent Control of Seed Germination: 50%
White Winter Wheat [6]; 2000 parts per million
  Percent Post-Emergent Control of Seed Germination: 50%
White Winter Wheat [6]; 4000 parts per million
  Percent Post-Emergent Control of Seed Germination: 50%
Water-Grass; 1/8 Lb/Acre
  % Control: 95%
Water-Grass; 1/16 Lb/Acre
  % Control: 90%
Corn; 1.0 pounds per surface acre
  Percent Pre-Emergent Control of Seed Germination: 30%
Corn; 2.0 pounds per surface acre
  Percent Pre-Emergent Control of Seed Germination: 95%
Corn; 5.0 pounds per surface acre
  Percent Pre-Emergent Control of Seed Germination: 95%
Crabgrass [7]; 1.0 pounds per surface acre
  Percent Pre-Emergent Control of Seed Germination: 0%
Crabgrass [7]; 2.0 pounds per surface acre
  Percent Pre-Emergent Control of Seed Germination: 100%
Crabgrass [7]; 5.0 pounds per surface acre
  Percent Pre-Emergent Control of Seed Germination: 100%
Crabgrass [7]; 1/8 Lb/Acre
  % Control: 95%
Crabgrass [7]; 1/16 Lb/Acre
  % Control: 70%
Johnson Grass [8]; 1.0 pounds per surface acre
  Percent Pre-Emergent Control of Seed Germination: 95%
Johnson Grass [8]; 2.0 pounds per surface acre
  Percent Pre-Emergent Control of Seed Germination: 95%
Johnson Grass [8]; 5.0 pounds per surface acre
  Percent Pre-Emergent Control of Seed Germination: 100%
Johnson Grass [8]; 1/8 Lb/Acre
  % Control: 95%
Johnson Grass [8]; 1/16 Lb/Acre
  % Control: 95%
